Where a name gives a salt, the structure may show the parent alone. Read-outs that look alike come from different tables or passages of the source.
Legend:
[1] = target: T1, Recombinant human M3 receptor (Homo sapiens, UniProt P20309); assay: biochemical; type: binding
T1 construct: expressed in transfected cells; host or cells: CHO-K1 cells (membranes)

[2] = system: Isolated Guinea Pig Trachea; assay: Potency in isolated guinea pig trachea, inhibition of EFS-stimulated contraction; conditions: Cavia porcellus, electrical field stimulation
Description: Experiments were carried out at 37° C. in modified Krebs-Henseleit solution, (114 mM NaCl, 15 mM NaHCO3, 1 mM MgSO4, 1.3 mM CaCl2, 4.7 mM KCl, 11.5 mM glucose and 1.2 mM KH2PO4, pH 7.4) gassed with 95% O2/5% CO2. Indomethacin was added to a final concentration of 3 μM
Tracheae were removed from adult male Dunkin Hartley Guinea pigs and dissected free of adherent tissue before being cut open longitudinally in a line opposite the muscle. Individual strips of 2-3 cartilage rings in width were cut and suspended using cotton thread in 10 mL water-jacketed organ baths and attached to a force transducer ensuring that the tissue is located between two platinum electrodes. Responses were recorded via a MP100W/Acknowledge data acquisition system connected to a PC. Tissues were equilibrated for one hour under a resting tone of 1 g and were then subjected to electrical field stimulation at a frequency of 80 Hz with a pulse width of 0.1 ms, a unipolar pulse, triggered every 2 minutes. A “voltage-response” curve was generated for each tissue and a submaximal voltage then applied to every piece of tissue according to its own response to voltage. Tissues were washed with Krebs solution and allowed to stabilize under stimulation prior to addition of test compound. Concentration response curves were obtained by a cumulative addition of test compound in half-log increments. Once the response to each addition had reached a plateau the next addition was made. Percentage inhibition of EFS-stimulated contraction is calculated for each concentration of each compound added and dose response curves constructed using Graphpad Prism software and the IC50 calculated for each compound.

[3] = target: T2, human muscarinic receptors (M3) (Homo sapiens, UniProt P20309); assay: Muscarinic receptor radioligand binding assay, [3H]-NMS, filter plate format; conditions: filter plate format
T2 construct: purchased
T2 sequence (P20309 whole entry): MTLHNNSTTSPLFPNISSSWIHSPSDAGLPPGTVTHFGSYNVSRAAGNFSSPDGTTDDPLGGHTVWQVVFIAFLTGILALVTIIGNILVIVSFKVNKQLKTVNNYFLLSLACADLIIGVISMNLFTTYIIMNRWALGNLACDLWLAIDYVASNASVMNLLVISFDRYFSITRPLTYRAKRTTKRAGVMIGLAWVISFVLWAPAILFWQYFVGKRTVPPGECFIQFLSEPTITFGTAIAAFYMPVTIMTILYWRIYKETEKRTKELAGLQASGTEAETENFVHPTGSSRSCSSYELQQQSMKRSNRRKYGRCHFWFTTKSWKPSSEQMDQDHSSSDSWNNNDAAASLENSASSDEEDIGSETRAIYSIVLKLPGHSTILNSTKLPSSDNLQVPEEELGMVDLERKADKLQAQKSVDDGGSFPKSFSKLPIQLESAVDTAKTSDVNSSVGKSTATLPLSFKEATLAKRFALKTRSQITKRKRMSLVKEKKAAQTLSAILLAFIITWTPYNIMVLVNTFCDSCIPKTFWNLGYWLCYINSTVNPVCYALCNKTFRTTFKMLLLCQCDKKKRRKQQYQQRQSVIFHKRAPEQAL
Description: Radioligand binding studies utilising [^3H]-N-methyl scopolamine ([^3H]-NMS) and commercially available cell membranes expressing the human muscarinic receptors (M2 and M3) were used to assess the affinity of muscarinic antagonists for M2 and M3 receptors. Membranes in TRIS buffer were incubated in 96-well plates with [^3H]-NMS and M3 antagonist at various concentrations for 3 hours. Membranes and bound radioligand were then harvested by filtration and allowed to dry overnight. Scintillation fluid was then added and the bound radioligand counted using a Canberra Packard Topcount scintillation counter

[4] = M3, SPA format assay, read-out: Ki in the SPA format assay
[5] = SPA format, read-out: M3 Ki (SPA format)

T1 sequence (P20309 whole entry): as above

Compound	Ki [1, 4] [nM]	Ki [1, 5] [nM]	IC50 [2] [nM]	Ki ([3]; M3 Ki (Filter plate format)) [nM]	Ki ([1]; M3 Ki (SPA format, SPA format)) [nM]	Ki ([3]; read-out: M3 Ki (Filter plate format)) [nM]
OC(c1ccccc1)(c1cc(C[N+]23CCC(CC2)[C@@H](Sc2ccccc2)C3)on1)C1CCCCC1 (single isomer, unassigned) [Example 70, 1-[3-(Cyclohexyl-hydroxy-phenyl-methyl)-isoxazol-5-ylmethyl]-3-phenylsulfanyl-1-azonia-bicyclo[2.2.2]octane; chloride]	0.65	< 5	2.8			
O=C(O[C@@H]1C[N+]2(Cc3cnc([C@](O)(c4ccccc4)C4CCCCC4)o3)CCC1CC2)c1ccccc1 [Example 10, (S)-3-benzoyloxy-1-[2-((R)-cyclohexyl-hydroxy-phenyl-methyl)-oxazol-5-ylmethyl]-1-azonia-bicyclo[2.2.2]octane; formate]				5 to 20	5 to 20	
O[C@](c1ccccc1)(c1ncc(C[N+]23CCC(c4ccccc4)(CC2)CC3)o1)C1CCCCC1 [Example 11, 1-[2-((R)-cyclohexyl-hydroxy-phenyl-methyl)-oxazol-5-ylmethyl]-4-phenyl-1-azonia-bicyclo[2.2.2]octane; formate]		> 20				> 20
O[C@](c1ccccc1)(c1ncc(C[N+]23CCC(CC2)[C@@H](COc2ccccc2)C3)o1)C1CCCCC1 [Example 25, (R)-1-[2-((R)—Cyclohexyl-hydroxy-phenyl-methyl)-oxazol-5-ylmethyl]-3-phenoxymethyl-1-azonia-bicyclo[2.2.2]octane; bromide]	0.13	< 5	1.9			
O[C@](c1ccccc1)(c1ncc(C[N+]23CCC(CC2)[C@@H](OCc2ccccc2)C3)o1)C1CCCC1 [Example 42, (R)-3-benzyloxy-1-[2-((R)-cyclopentyl-hydroxy-phenyl-methyl)-oxazol-5-ylmethyl]-1-azonia-bicyclo[2.2.2]octane; formate]	0.09	< 5	0.7			
OC(c1ccccc1)(c1ccccc1)c1noc(C[N+]23CCC(CC2)[C@@H](Oc2ccc(F)cc2)C3)n1 [Example 95, (R)-3-(4-Fluoro-phenoxy)-1-[3-(hydroxy-diphenyl-methyl)-[1,2,4]oxadiazol-5-ylmethyl]-1-azonia-bicyclo[2.2.2]octane; chloride]	0.17	< 5	0.6			
